According to ChEMBL document CHEMBL5036337 (J Nat Prod, 2021):
In brackets after ≈: the same amount, converted by molar mass.

How the values were obtained:
[1] = system: CAL-27; assay: cells; assay type: functional, cell-based; conditions: Homo sapiens, CAL-27, 72 h
[2] = system: SCC-9; assay: cells; assay type: functional, cell-based; conditions: Homo sapiens, SCC-9, 72 h
[3] = Stability in mouse blood assessed as compound recovery measured at 25 degC for 4 hrs
[4] = Stability in mouse blood assessed as compound remaining measured at 20 degC for 8 hrs
[5] = Stability in mouse blood assessed as compound remaining measured at - 80 degC for 4 months
[6] = Half life in C57BL/6 mouse at 500 mg/kg, iv administered as Antitumor B; conditions: in vivo
[7] = Volume of distribution in C57BL/6 mouse at 500 mg/kg, iv administered as Antitumor B; conditions: in vivo
[8] = Clearance in C57BL/6 mouse at 500 mg/kg, iv administered as Antitumor B; conditions: in vivo
[9] = mouse, in vivo, iv, 500 mg/kg, 24 h
[10] = mouse, in vivo, iv, 500 mg/kg
[11] = mouse, in vivo, po, 500 mg/kg
[12] = in vivo, po, 4000 mg/kg, 24 h
[13] = in vivo, ip, 500 mg/kg, 24 h
[14] = in vivo; conditions: C57BL/6, mouse, iv, 500 mg/kg
[15] = in vivo; conditions: C57BL/6, mouse, iv, 500 mg/kg; remark: listed apart in the source
[16] = in vivo; conditions: C57BL/6, mouse, po, 4000 mg/kg
[17] = in vivo; conditions: C57BL/6, mouse, po, 4000 mg/kg; remark: listed apart in the source
[18] = in vivo; conditions: C57BL/6, mouse, po, 4000 mg/kg; remark: listed apart in the source
[19] = in vivo; conditions: C57BL/6, mouse, ip, 500 mg/kg
[20] = in vivo; conditions: C57BL/6, mouse, ip, 500 mg/kg; remark: listed apart in the source
[21] = Half life in C57BL/6 mouse at 4000 mg/kg, po; conditions: in vivo
[22] = Half life in C57BL/6 mouse at 500 mg/kg, ip qd measured after 7 days; conditions: in vivo, 168 h
[23] = in vivo, po, 500 mg/kg, 24 h
[24] = in vivo, ip, 500 mg/kg, 24 h; remark: listed apart in the source
[25] = in vivo, ip, 500 mg/kg, 168 h
[26] = in vivo, ip, 500 mg/kg, 168 h; remark: listed apart in the source
[27] = in vivo; conditions: C57BL/6, mouse, po, 500 mg/kg
[28] = in vivo; conditions: C57BL/6, mouse, po, 500 mg/kg; remark: listed apart in the source
[29] = in vivo; conditions: C57BL/6, mouse, po, 500 mg/kg; remark: listed apart in the source
[30] = in vivo; conditions: C57BL/6, mouse, po, 4000 mg/kg; remark: listed apart in the source
[31] = in vivo; conditions: C57BL/6, mouse, ip, 500 mg/kg; remark: listed apart in the source
[32] = in vivo; conditions: C57BL/6, mouse, ip, 500 mg/kg; remark: listed apart in the source
[33] = Half life in C57BL/6 mouse at 500 mg/kg, po; conditions: in vivo
[34] = C57BL/6, mouse, in vivo, ip, 500 mg/kg, 168 h
[35] = in vivo; conditions: C57BL/6, mouse, po, 500 mg/kg; remark: listed apart in the source

| Structure (SMILES) | IC50 [1] | IC50 [2] | remaining at 4 h [3] | remaining at 8 h [4] | remaining at 2920 h [5] | half-life [6] | Vd [7] | CL ([8]; mouse) | AUC [9] | AUC [10] | F [11] | Cmax [14] | MRT last [15] | Tmax [16] | Cmax [17] | MRT last [18] | AUC at 24 h [19] | MRT at 24 h [20] | AUC at 168 h [31] | MRT at 168 h [32] | further results |
| --- | --- | --- | --- | --- | --- | --- | --- | --- | --- | --- | --- | --- | --- | --- | --- | --- | --- | --- | --- | --- | --- |
| CC1=C2C(=O)O[C@@H](c3ccoc3)[C@]2(C)CCC1 [FRAXINELLONE] | 22.4 µg/mL (≈ 96.4 µM) | 43.4 µg/mL (≈ 187 µM) | 85% | 85% | 85% | 5.2 h | 2.9 L/kg | 6.7 mL/min/kg | 95.2 ng·h/mL | 166.8 ng·h/mL | 0.2% | 34.3 ng/mL | 3.2 h | 0.5 h | 4.7 ng/mL | 0.4 h | 2.7 ng·h/mL | 0.6 h | – | – | AUC ([12]; mouse): 1.1 ng·h/mL; Cmax ([13]; mouse): 4.1 ng/mL |
| O=c1[nH]cc(F)c(=O)[nH]1 [FLUOROURACIL] | 0.5 µg/mL (≈ 3.84 µM) | 12.7 µg/mL (≈ 97.6 µM) | – | – | – | – | – | – | – | – | – | – | – | – | – | – | – | – | – | – | – |
| Oc1ccc2c(c1)OCC1c3cc4c(cc3OC21)OCO4 (configuration not stated) | 11.5 µg/mL (≈ 40.5 µM) | 94.9 µg/mL (≈ 334 µM) | 85% | 85% | 85% | 4.9 h | 4.1 L/kg | 10 mL/min/kg | 68.9 ng·h/mL | 71.5 ng·h/mL | 4.6% | 67.5 ng/mL | 3 h | 0.7 h | 16.4 ng/mL | 3.6 h | 5.6 ng·h/mL | 0.3 h | 47.4 ng·h/mL | 8.4 h | half-life [21]: 3.5 h; t1/2 ([22]; mouse): 2.2 h; AUC ([23]; mouse): 0.4 ng·h/mL; AUC ([12]; mouse): 25.5 ng·h/mL; Tmax ([24]; mouse): 0.2 h; Cmax ([13]; mouse): 15.6 ng/mL; Cmax ([25]; mouse): 17.2 ng/mL; AUC ([26]; mouse): 51.8 ng·h/mL; Tmax [27]: 0.6 h; Cmax [28]: 0.5 ng/mL; MRT last [29]: 0.6 h; AUC(0-inf) [30]: 27.5 ng·h/mL |
| COc1c2ccccc2nc2occc12 [DICTAMNINE] | 19.7 µg/mL (≈ 98.9 µM) | 27.8 µg/mL (≈ 140 µM) | 85% | 85% | 85% | – | 0.6 L/kg | – | – | – | – | – | – | – | – | – | 1 ng·h/mL | 0.4 h | 23.2 ng·h/mL | 11.7 h | – |
| O=C1CCC[C@@H]2[C@H]3CCCN4CCC[C@@H](CN12)[C@@H]34 [MATRINE] | 21 µg/mL (≈ 84.6 µM) | > 100 µg/mL | 85% | 85% | 85% | 7.5 h | 9.1 L/kg | – | – | 5170.7 ng·h/mL | – | 3930 ng/mL | 1.8 h | 0.7 h | 709 ng/mL | 4.5 h | 1480 ng·h/mL | 5.3 h | 1650 ng·h/mL | 8 h | CL ([8]; C57BL/6, mouse): 13 mL/min/kg; half-life [33]: 3.8 h; half-life [21]: 7.5 h; t1/2 ([22]; C57BL/6, mouse): 8.2 h; AUC ([23]; C57BL/6, mouse): 120.5 ng·h/mL; AUC ([12]; C57BL/6, mouse): 3667.7 ng·h/mL; Tmax ([24]; C57BL/6, mouse): 0.2 h; Tmax [34]: 0.5 h; Cmax ([13]; C57BL/6, mouse): 815.9 ng/mL; Cmax ([25]; C57BL/6, mouse): 551.8 ng/mL; AUC ([26]; C57BL/6, mouse): 2254 ng·h/mL; Tmax [27]: 0.4 h; Cmax [28]: 53.8 ng/mL; AUC(0-inf) [35]: 124 ng·h/mL; MRT last [29]: 3.6 h; AUC(0-inf) [30]: 5370 ng·h/mL |
